According to ChEMBL document CHEMBL5543078, “Peptidomimetics as potent dual SARS-CoV-2 cathepsin-L and main protease inhibitors: In silico design, synthesis and pharmacological characterization” (Eur J Med Chem, 2024):
The source made the active and inactive calls. The calls are words filed in the database; no cut-off is given here. Residues, ends and D or L forms follow the SMILES beside them. *: point of attachment. Acryloyl = C=CC(=O)*; NHBn = c1ccc(CN*)cc1

Experiments:
[1] = target: Replicase polyprotein 1ab (Severe acute respiratory syndrome coronavirus 2, UniProt P0DTD1); test: Inhibition of recombinant SARS-CoV-2 main protease using DABCYL-KTSAVLQSGFRKME-EDANS as fluorescent substrate preincubated for 30 mins followed by substrate addition by FRET assay
[2] = Cytotoxicity against African green monkey Vero cells assessed as change in cell morphology by measuring minimum cytotoxic concentration by microscopic analysis; type: toxicity, cell-based; details: chlorocebus sabaeus
Human coronavirus 229E = type: functional, organism-based
Human coronavirus OC43 = type: functional, organism-based
SARS-CoV-2 [3] = test: microbe, parasite or virus in culture; details: Severe acute respiratory syndrome coronavirus 2, Wuhan/WIV04/2020, Vero
Description: Antiviral activity against SARS-CoV-2 Wuhan/WIV04/2020 infected in African green monkey Vero cells assessed as reduction in virus-induced cytopathic effect incubated for 6 to 7 days by microscopic analysis

SARS-CoV-2 [4] = test: microbe, parasite or virus in culture; details: Severe acute respiratory syndrome coronavirus 2, NVDBB-2220 (Alpha), Vero
Description: Antiviral activity against SARS-CoV-2 NVDBB-2220 (Alpha) infected in African green monkey Vero cells assessed as reduction in virus-induced cytopathic effect incubated for 6 to 7 days by microscopic analysis

SARS-CoV-2 [5] = test: microbe, parasite or virus in culture; details: Severe acute respiratory syndrome coronavirus 2, 860-J1 (Delta), Vero
Description: Antiviral activity against SARS-CoV-2 860-J1 (Delta) infected in African green monkey Vero cells assessed as reduction in virus-induced cytopathic effect incubated for 6 to 7 days by microscopic analysis

SARS-CoV-2 [6] = test: microbe, parasite or virus in culture; details: Severe acute respiratory syndrome coronavirus 2, Omicron B1.1.529, Vero
Description: Antiviral activity against SARS-CoV-2 Omicron B1.1.529 infected in African green monkey Vero cells assessed as reduction in virus-induced cytopathic effect incubated for 6 to 7 days by microscopic analysis

[7] = Stability in simulated gastric fluid assessed as parent compound remaining incubated upto 120 mins by LC-MS analysis; type: ADME; details: read-out: Stability
[8] = Stability in simulated intestinal fluid assessed as parent compound remaining incubated upto 120 mins by LC-MS analysis; type: ADME; details: read-out: Stability
[9] = Half life in human plasma at 10 uM measured upto 180 mins by LC-MS analysis; type: ADME, cell-free
[10] = Metabolic stability in human liver microsomes assessed as half life incubated upto 60 mins in presence of NADPH by LC-MS analysis; type: ADME, Microsome
[11] = Metabolic stability in human liver microsomes assessed as half life incubated upto 60 mins in presence of NADPH and UDPGA by LC-MS analysis; type: ADME, Microsome
[12] = Metabolic stability in human liver microsomes assessed as intrinsic clearance incubated upto 60 mins in presence of NADPH by LC-MS analysis; type: ADME, Microsome; details: read-out: CLH
Procathepsin L = Procathepsin L (Homo sapiens, UniProt P07711); test: Inhibition of Cathepsin L (unknown origin) using Z-Leu-Arg-AMC fluorometric dipeptide as substrate peincubated for 10 mins followed by substrate addition by fluorescence based assay
Procathepsin L, sequence (P07711 whole entry): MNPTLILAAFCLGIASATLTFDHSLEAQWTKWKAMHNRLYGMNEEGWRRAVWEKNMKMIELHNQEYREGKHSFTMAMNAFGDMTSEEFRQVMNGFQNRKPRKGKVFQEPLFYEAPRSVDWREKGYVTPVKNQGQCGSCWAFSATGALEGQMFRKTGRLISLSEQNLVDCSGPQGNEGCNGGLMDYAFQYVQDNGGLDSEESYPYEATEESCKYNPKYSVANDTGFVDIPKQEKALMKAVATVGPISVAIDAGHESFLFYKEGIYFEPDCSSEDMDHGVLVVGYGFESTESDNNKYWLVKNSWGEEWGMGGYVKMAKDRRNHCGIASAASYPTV

Row | Structure (SMILES) | IC50 [1] [µM] | MCC [2] [µM] | Activity (Human coronavirus 229E) | Activity (Human coronavirus OC43) | EC50 (SARS-CoV-2 [3]) [µM] | EC50 (SARS-CoV-2 [4]) [µM] | EC50 (SARS-CoV-2 [5]) [µM] | EC50 (SARS-CoV-2 [6]) [µM] | remaining at 2 h [7] [%] | remaining at 2 h [8] [%] | half-life at 10 µM [9] [h] | half-life [10] [h] | half-life [11] [h] | CLint scaled [12] [mL/min/kg] | IC50 (Procathepsin L) [µM]
1 | C=CC[C@H](NC(=O)CCl)C(=O)N[C@@H](CC=C)C(=O)N[C@H](CNCc1ccccc1)Cc1c[nH]c2ccccc12 | > 30 | > 100 | Active | Active | 4.29 | 2.53 | 18.1 | 15.2 | – | – | – | – | – | – | –
2 | CC(C)C[C@@H](NC(=O)CCl)C(=O)N[C@@H](Cc1c[nH]c2ccccc12)C(=O)NCc1ccccc1 | > 30 | > 100 | Active | Active | 0.08 | 0.57 | 1.08 | 1.37 | > 80 | > 80 | 3.87 | 1.24 | 1.25 | < 45 | –
3 | O=C(CS)N[C@@H](Cc1ccccc1)C(=O)N[C@@H](Cc1c[nH]c2ccccc12)C(=O)NCc1ccccc1 | > 30 | > 100 | Active | Active | > 100 | > 100 | > 100 | > 100 | – | – | – | – | – | – | –
4 | C=CC[C@H](NC(=O)CCl)C(=O)N[C@@H](Cc1c[nH]c2ccccc12)C(=O)NCCN1CCOCC1 | > 30 | > 100 | Active | Active | 10.3 | 10.7 | 29.2 | 13.5 | – | – | – | – | – | – | –
5 | CC(C)C[C@H](NC(=O)CCl)C(=O)N[C@H](Cc1c[nH]c2ccccc12)C(=O)NCc1ccccc1 | 14.6 | > 100 | Active | Active | 8.71 | > 20 | > 20 | > 20 | – | – | – | – | – | – | –
6 | CC(C)C[C@@H](C(=O)NCC12CC3CC(CC(C3)C1)C2)N(Cc1ccccc1)C(=O)CCl | > 30 | 19 | Active | Active | > 4 | > 4 | > 4 | > 4 | – | – | – | – | – | – | –
7 | CC(C)C[C@H](NC(=O)CCl)C(=O)N[C@@H](Cc1c[nH]c2ccccc12)C(=O)NCc1ccccc1 | 2.81 | > 100 | Active | Active | 0.27 | 0.32 | 1.2 | 1.28 | > 80 | > 80 | – | 0.495 | 0.352 | > 45 | –
8 | C=CC(=O)N[C@@H](CC(C)C)C(=O)N[C@@H](Cc1c[nH]c2ccccc12)C(=O)NCc1ccccc1 | > 30 | > 100 | Active | Active | > 100 | > 100 | > 100 | > 100 | – | – | – | – | – | – | –
9 | CCN(CC)CCCC(C)Nc1ccnc2cc(Cl)ccc12 (stereo not drawn) | – | – | Active | Active | – | – | – | – | – | – | – | – | – | – | –
10 | NC(=O)c1ncn([C@@H]2O[C@H](CO)[C@@H](O)[C@H]2O)n1 | – | – | Active | Active | – | – | – | – | – | – | – | – | – | – | –
11 | C=CC(=O)N[C@@H](Cc1ccccc1)C(=O)N[C@@H](Cc1c[nH]c2ccccc12)C(=O)NCc1ccccc1 (Acryloyl-Phe-Trp-NHBn) | > 30 | > 100 | Active | Active | > 20 | > 20 | > 20 | > 20 | – | – | – | – | – | – | > 30
